Assay results: ChEMBL document CHEMBL1143511, “Antitubercular agents. Part 1: synthesis of phthalimido- and naphthalimido-linked phenazines as new prototype antitubercular agents” (2005)
Converted amounts (≈) assume the structure as drawn.

Tests used:
Type in all cases: functional
[1] = system: Mycobacterium tuberculosis; test: Minimum inhibitory concentration tested against Mycobacterium tuberculosis sensitive clinical isolates
[2] = system: Mycobacterium tuberculosis; test: Minimum inhibitory concentration tested against Mycobacterium tuberculosis H37Rv ATCC 27294
[3] = system: Mycobacterium intracellulare; test: Minimum inhibitory concentration tested against Mycobacterium intracellular ATCC 13950
[4] = system: Mycobacterium avium; test: Minimum inhibitory concentration tested against Mycobacterium avium ATCC 49601
[5] = system: Mycobacterium tuberculosis; test: Minimum inhibitory concentration tested against Mycobacterium tuberculosis sensitive clinical isolates; Range:1-2 ug/ml
[6] = system: Mycobacterium tuberculosis; test: Minimum inhibitory concentration tested against Mycobacterium tuberculosis sensitive clinical isolates; Range 0.125-0.25 ug/ml
[7] = system: Mycobacterium tuberculosis; test: Minimum inhibitory concentration tested against Mycobacterium tuberculosis sensitive clinical isolates; Range:1-4 ug/ml
[8] = system: Mycobacterium tuberculosis; test: Minimum inhibitory concentration tested against Mycobacterium tuberculosis sensitive clinical isolates; Range 8-16 ug/mL

## O=C1c2cccc3cccc(c23)C(=O)N1CCCN1CCN(CC/N=c2/cc3n(-c4ccc(Cl)cc4)c4ccccc4nc-3cc2Nc2ccc(Cl)cc2)CC1
[1]
  MIC: > 16 µg/mL
[2]
  MIC: > 16 µg/mL
[3]
  MIC: > 16 µg/mL
[4]
  MIC: > 16 µg/mL

## O=C1c2ccccc2C(=O)N1CCCCCCN1CCN(CC/N=c2/cc3n(-c4ccc(Cl)cc4)c4ccccc4nc-3cc2Nc2ccc(Cl)cc2)CC1
[5]
  MIC: 2 µg/mL (≈ 2.59 µM)
[2]
  MIC: 1 µg/mL (≈ 1.29 µM)
[3]
  MIC: 8 µg/mL (≈ 10.4 µM)
[4]
  MIC: 16 µg/mL (≈ 20.7 µM)

## O=C1c2cccc3cccc(c23)C(=O)N1CCCCCN1CCN(CC/N=c2/cc3n(-c4ccc(Cl)cc4)c4ccccc4nc-3cc2Nc2ccc(Cl)cc2)CC1
[1]
  MIC: > 16 µg/mL
[2]
  MIC: > 16 µg/mL
[3]
  MIC: > 16 µg/mL
[4]
  MIC: > 16 µg/mL

## NNC(=O)c1ccncc1 [ISONIAZID]
[6]
  MIC: 0.25 µg/mL (≈ 1.82 µM)
[2]
  MIC: 0.25 µg/mL (≈ 1.82 µM)
[3]
  MIC: 8 µg/mL (≈ 58.3 µM)
[4]
  MIC: > 16 µg/mL

## O=C1c2ccccc2C(=O)N1CCCN1CCN(CC/N=c2/cc3n(-c4ccc(Cl)cc4)c4ccccc4nc-3cc2Nc2ccc(Cl)cc2)CC1
[1]
  MIC: > 16 µg/mL
[2]
  MIC: > 16 µg/mL
[3]
  MIC: > 16 µg/mL
[4]
  MIC: > 16 µg/mL

## O=C1c2ccccc2C(=O)N1CCCCN1CCN(CC/N=c2/cc3n(-c4ccc(Cl)cc4)c4ccccc4nc-3cc2Nc2ccc(Cl)cc2)CC1
[1]
  MIC: > 16 µg/mL
[2]
  MIC: > 16 µg/mL
[3]
  MIC: > 16 µg/mL
[4]
  MIC: > 16 µg/mL

## O=C1c2ccccc2C(=O)N1CCCCCN1CCN(CC/N=c2/cc3n(-c4ccc(Cl)cc4)c4ccccc4nc-3cc2Nc2ccc(Cl)cc2)CC1
[7]
  MIC: 4 µg/mL (≈ 5.27 µM)
[2]
  MIC: 1 µg/mL (≈ 1.32 µM)
[3]
  MIC: 8 µg/mL (≈ 10.5 µM)
[4]
  MIC: 16 µg/mL (≈ 21.1 µM)

## O=C1c2cccc3cccc(c23)C(=O)N1CCCCCCN1CCN(CC/N=c2/cc3n(-c4ccc(Cl)cc4)c4ccccc4nc-3cc2Nc2ccc(Cl)cc2)CC1
[8]
  MIC: 16 µg/mL (≈ 19.4 µM)
[2]
  MIC: 16 µg/mL (≈ 19.4 µM)
[3]
  MIC: > 16 µg/mL
[4]
  MIC: > 16 µg/mL

## O=C1c2cccc3cccc(c23)C(=O)N1CCCCN1CCN(CC/N=c2/cc3n(-c4ccc(Cl)cc4)c4ccccc4nc-3cc2Nc2ccc(Cl)cc2)CC1
[1]
  MIC: > 16 µg/mL
[2]
  MIC: > 16 µg/mL
[3]
  MIC: > 16 µg/mL
[4]
  MIC: > 16 µg/mL
